This note sets out measurements from patent publication US10654838B2, “Aminopyridine compounds useful as inhibitors of protein prenylation” (INSTITUT NATIONAL DE LA SANTE ET DE LA RECHERCHE MEDICALE …, priority 2014, dated 2020).

Experiment [1] addresses T1, FPPS (Homo sapiens, UniProt P14324).
T1 sequence (P14324 1-419): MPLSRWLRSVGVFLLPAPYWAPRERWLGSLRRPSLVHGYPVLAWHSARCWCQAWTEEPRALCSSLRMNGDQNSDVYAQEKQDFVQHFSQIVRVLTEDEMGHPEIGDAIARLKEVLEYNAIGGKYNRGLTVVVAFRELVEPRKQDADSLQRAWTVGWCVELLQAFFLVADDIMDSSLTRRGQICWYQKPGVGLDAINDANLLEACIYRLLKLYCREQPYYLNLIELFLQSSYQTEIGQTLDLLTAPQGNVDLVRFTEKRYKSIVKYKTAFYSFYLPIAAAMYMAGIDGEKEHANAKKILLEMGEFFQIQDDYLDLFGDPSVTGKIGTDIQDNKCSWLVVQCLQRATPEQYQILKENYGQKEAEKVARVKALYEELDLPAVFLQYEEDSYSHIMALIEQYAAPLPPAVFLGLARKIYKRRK
In words: FPPS activity assay. As to conditions: concentration inducing 50% of the maximum inhibiting effect of the compound. Details: endogenous in cells; host or cells: HGPS MSCs (cell lysate). It is filed as biochemical. As for the experimental part:
Cell pellet of HGPS MSCs were resuspended in 25 mM Tris-HCl pH 7.4, 1 mM DTT, 1 mM MgCl2, 1 EDTA, 1 mM PMSF and centrifuged at 10,000×g for 10 min at 4° C. Protein content was determined using Lowry's method. Aliquots of cell lysate containing 100 μg of total proteins were incubated with tested substances at 37° C. for 30 min.
FPPS assay was carried out with some modifications of the procedure of Krisans et al. (Krisans et al., 1994, The Journal of biological chemistry VOL. 269: 14165-14169) and described by Gupta et al. (Gupta et al., 1999, Eur J Med Chem, VOL. 43: 2751-2767). Briefly, FPPS was assayed in 150 μL containing 25 mmol/L Hepes, pH=7, 2 mmol/L MgCl2, 1 mmol/L dithiothreitol, 5 mmol/L KF, 1% A noctyl-β-glucopyranoside, 3.3 μmol/L [4-14C] IPP (18 Ci/mmol), 3 μmol/L unlabeled IPP and 20 μmol/L geranyl diphosphate. Reactions were started by adding 40 μL of treated or untreated cell lysate and incubated for 45 min at 37° C. Reactions were stopped by the addition of 150 μL 2.5 mol/L HCl in 80% ethanol containing 100 μg/mL farnesol as a carrier. The samples were hydrolyzed for 30 min at 37° C. to convert the FPP to farnesol and neutralized by the addition of 150 μL of 10% NaOH. The reaction product (farnesol) was extracted into 1 mL of N-hexane and an aliquot (200 μL) of the organic phase was used for radioactivity counting. Parallel samples were assayed to evaluate the total and the nonspecific radioactivity. In all experiments, enzyme assays were carried out in triplicate.

In experiment [2] the test system is HGPS MSCs. In words: Nuclear shape abnormalities (lamin A/C immunostaining). Format: cell-based, human. As to conditions: 48 h, lamin A/C staining. As for the experimental part: In the 4-steps protocol, cells were fixed in 4% paraformaldehyde (15 minutes, room temperature) before permeabilization and blocking in PBS supplemented with 0.1% triton X-100 and 1% BSA (Sigma-Aldrich, St. Louis, USA). Primary antibodies were incubated one hour at room temperature in blocking buffer. Antibodies included mouse anti-lamins A/C (clone JOL2, Millipore, Billerica, USA), rabbit anti-prelamin A (ANTOO45, Diatheva) and anti-Ki67 (clone Ki-S5, MAB4190, Millipore, Billerica, USA). Cells were stained with the species-specific fluorophore-conjugated secondary antibody (Invitrogen) (one hour, room temperature) and nuclei were visualized with Hoechst 33342.

Structures are written as SMILES.

Take `N#CC(c1ccccn1)c1ccnc(N2CCN(Cc3ccccc3F)CC2)n1` (centres unmarked) [Mono-AP1, {2-[4-(2-fluoro-benzyl)-piperazin-1-yl]-pyrimidin-4-yl}-pyridin-2-yl-acetonitrile]: the half-maximal inhibitory concentration (IC50) in experiment [1] was found to be 1.55 µM. For the same compound, in experiment [2], the “rescue of nuclear shape abnormalities” value is reported as “restoring HGPS MSCs nuclear shape defects at levels not significantly different from the FTI tipifarnib”.

The IC50 is the concentration that inhibits the measured activity by half. High values mean weaker potency in that assay, low ones greater potency in that assay.
